Several values for one entry are separate records, joined by “and”; a condition that tells them apart may be missing. Equal values may be shown once.
Assay: molar heat capacity at constant pressure
Details: 101.33 kPa, Crystal 1

O=P([O-])([O-])[O-].[Cs+].[Mn+2] [cesium manganese(II) phosphate]
molar heat capacity at constant pressure
Details | Small sample (50 mg) DSC | Vacuum adiabatic calorimetry
240.73 K | – | 124.88 J/K/mol
243.23 K | – | 125.55 J/K/mol
245.29 K | – | 126.13 J/K/mol
247.36 K | – | 126.8 J/K/mol
250 K | – | 126.96 J/K/mol
250.13 K | – | 127.46 J/K/mol
252.55 K | – | 128.04 J/K/mol
255.37 K | – | 128.79 J/K/mol
258.11 K | – | 129.46 J/K/mol
260 K | – | 129.62 J/K/mol
260.99 K | – | 130.29 J/K/mol
263.88 K | – | 131.12 J/K/mol
266.76 K | – | 131.87 J/K/mol
269.64 K | – | 132.62 J/K/mol
270 K | – | 132.37 J/K/mol
272.52 K | – | 133.45 J/K/mol
275.39 K | – | 134.28 J/K/mol
278.26 K | – | 135.19 J/K/mol
280 K | – | 135.11 J/K/mol
281.34 K | – | 136.02 J/K/mol
283.99 K | – | 136.77 J/K/mol
286.86 K | – | 137.69 J/K/mol
289.06 K | – | 138.1 J/K/mol
290 K | – | 138.02 J/K/mol
291.64 K | – | 139.02 J/K/mol
295.04 K | – | 140.18 J/K/mol
297.8 K | – | 141.01 J/K/mol
298.15 K | – | 140.43 J/K/mol
300 K | – | 141.01 J/K/mol
300.2 K | – | 141.76 J/K/mol
302.7 K | – | 142.51 J/K/mol
305.33 K | – | 143.34 J/K/mol
308.4 K | – | 144.17 J/K/mol
310 K | – | 144.17 J/K/mol
310.94 K | – | 144.92 J/K/mol
314 K | – | 145.92 J/K/mol
317.6 K | – | 147 J/K/mol
320 K | – | 147.58 J/K/mol
320.46 K | – | 147.91 J/K/mol
323.3 K | – | 148.91 J/K/mol
326.66 K | – | 150.08 J/K/mol
329.3 K | – | 150.91 J/K/mol
330 K | – | 151.16 J/K/mol
330.7 K | 151.32 J/K/mol | –
331.64 K | – | 151.57 J/K/mol
332.7 K | 152.15 J/K/mol | –
333.9 K | 152.15 J/K/mol | –
335.3 K | – | 152.49 J/K/mol
337 K | 152.99 J/K/mol | –
338.7 K | – | 153.4 J/K/mol
340 K | 153.82 J/K/mol | 154.9 J/K/mol
341.6 K | 153.82 J/K/mol | –
343.13 K | – | 154.65 J/K/mol
345 K | 155.48 J/K/mol | –
347.5 K | 155.48 J/K/mol | –
350 K | 156.31 J/K/mol | –
352.5 K | 157.14 J/K/mol | –
355 K | 157.14 J/K/mol | –
357.7 K | 157.97 J/K/mol | –
360 K | 158.81 J/K/mol | –
360.2 K | 157.97 J/K/mol | –
362.5 K | 158.81 J/K/mol | –
364.9 K | 158.81 J/K/mol | –
367.5 K | 159.64 J/K/mol | –
370 K | 160.47 J/K/mol | –
372.5 K | 160.47 J/K/mol | –
374.8 K | 161.3 J/K/mol | –
377.3 K | 161.3 J/K/mol | –
380 K | 162.13 J/K/mol | –
382.2 K | 162.13 J/K/mol | –
385 K | 162.96 J/K/mol | –
387.5 K | 162.96 J/K/mol | –
390 K | 163.8 J/K/mol | –
392.5 K | 163.8 J/K/mol | –
395 K | 164.63 J/K/mol | –
397.5 K | 164.63 J/K/mol | –
400 K | 164.63 J/K/mol | –
400.3 K | 165.46 J/K/mol | –
402.8 K | 165.46 J/K/mol | –
405.3 K | 166.29 J/K/mol | –
407.5 K | 166.29 J/K/mol | –
409.5 K | 166.29 J/K/mol | –
410 K | 166.29 J/K/mol | –
412.6 K | 166.29 J/K/mol | –
415 K | 167.12 J/K/mol | –
417.5 K | 167.12 J/K/mol | –
420 K | 167.12 J/K/mol | –
422.5 K | 167.12 J/K/mol | –
425 K | 167.95 J/K/mol | –
427.5 K | 167.95 J/K/mol | –
430 K | 167.95 J/K/mol | –
432.5 K | 167.95 J/K/mol | –
435 K | 168.78 J/K/mol | –
437.5 K | 168.78 J/K/mol | –
440 K | 169.62 J/K/mol and 168.78 J/K/mol | –
442.5 K | 169.62 J/K/mol | –
445 K | 169.62 J/K/mol | –
447.5 K | 169.62 J/K/mol | –
450 K | 170.45 J/K/mol | –
452.5 K | 170.45 J/K/mol | –
455 K | 170.45 J/K/mol | –
457.5 K | 170.45 J/K/mol | –
460 K | 171.28 J/K/mol | –
462.5 K | 171.28 J/K/mol | –
465 K | 171.28 J/K/mol | –
467.5 K | 171.28 J/K/mol | –
469.9 K | 172.11 J/K/mol | –
470 K | 172.11 J/K/mol | –
472.5 K | 172.11 J/K/mol | –
475 K | 172.11 J/K/mol | –
477.5 K | 172.11 J/K/mol | –
480 K | 172.94 J/K/mol | –
482.5 K | 172.94 J/K/mol | –
485 K | 172.94 J/K/mol | –
487.5 K | 172.94 J/K/mol | –
490 K | 173.77 J/K/mol | –
492.5 K | 173.77 J/K/mol | –
495 K | 173.77 J/K/mol | –
497.5 K | 174.6 J/K/mol | –
500 K | 174.6 J/K/mol | –
502.5 K | 174.6 J/K/mol | –
505.3 K | 174.6 J/K/mol | –
507.5 K | 175.44 J/K/mol | –
510 K | 175.44 J/K/mol | –
512.5 K | 175.44 J/K/mol | –
515 K | 175.44 J/K/mol | –
517.5 K | 176.27 J/K/mol | –
520 K | 176.27 J/K/mol | –
522.5 K | 176.27 J/K/mol | –
525 K | 176.27 J/K/mol | –
527.5 K | 177.1 J/K/mol | –
530 K | 177.1 J/K/mol | –
532.5 K | 177.1 J/K/mol | –
535 K | 177.1 J/K/mol | –
537.5 K | 177.93 J/K/mol | –
540 K | 177.93 J/K/mol | –
542.5 K | 177.93 J/K/mol | –
545 K | 177.93 J/K/mol | –
547.5 K | 178.76 J/K/mol | –
550 K | 178.76 J/K/mol | –
552.5 K | 178.76 J/K/mol | –
555 K | 178.76 J/K/mol | –
557.5 K | 179.59 J/K/mol | –
560 K | 179.59 J/K/mol | –
562.5 K | 179.59 J/K/mol | –
565 K | 179.59 J/K/mol | –
567.5 K | 180.42 J/K/mol | –
570 K | 180.42 J/K/mol | –
572.5 K | 180.42 J/K/mol | –
575 K | 180.42 J/K/mol | –
577.5 K | 181.26 J/K/mol | –
580 K | 181.26 J/K/mol | –
582.5 K | 181.26 J/K/mol | –
585 K | 181.26 J/K/mol | –
587.5 K | 182.09 J/K/mol | –
590 K | 182.09 J/K/mol | –
592.5 K | 182.09 J/K/mol | –
595 K | 182.09 J/K/mol | –
597.5 K | 182.92 J/K/mol | –
600 K | 182.92 J/K/mol | –
602.5 K | 182.92 J/K/mol | –
605 K | 183.75 J/K/mol | –
607.5 K | 183.75 J/K/mol | –
610 K | 183.75 J/K/mol | –
612.5 K | 183.75 J/K/mol | –
615 K | 184.58 J/K/mol | –
617.5 K | 184.58 J/K/mol | –
620 K | 184.58 J/K/mol | –
622.4 K | 184.58 J/K/mol | –
625 K | 185.41 J/K/mol | –
627.5 K | 185.41 J/K/mol | –
630 K | 185.41 J/K/mol | –
632.5 K | 186.24 J/K/mol | –
635 K | 186.24 J/K/mol | –
637.5 K | 186.24 J/K/mol | –
640 K | 186.24 J/K/mol | –
642.5 K | 186.24 J/K/mol | –
645.1 K | 187.08 J/K/mol | –
647.5 K | 187.08 J/K/mol | –
650 K | 187.08 J/K/mol | –
